Reference: the supplement of paper PMC8967900

Columns and labels:
Test in all cases: selective drug sensitivity score (sDSS, relative to normal bone marrow) (sDSS (score)); higher = more potent and effective on the cell line relative to normal bone marrow cells
Conditions in all cases: 72 h
CCRF-HSB2 = test system: CCRF-HSB2
PEER = test system: PEER
RCH-ACV = test system: RCH-ACV
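Note: ALL cell lines in 384-well plates, five doses spanning 10,000-fold, each plate scaled between vehicle and 100 µmol/L benzalkonium chloride controls, sDSS an adapted area-under-curve metric.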

Row | SMILES | selective drug sensitivity score (CCRF-HSB2) | selective drug sensitivity score (PEER) | selective drug sensitivity score (RCH-ACV)
1 | CCCS(=O)(=O)Nc1ccc(F)c(C(=O)c2c[nH]c3ncc(-c4ccc(Cl)cc4)cc23)c1F [Vemurafenib] (top concentration 10000 nM) | 4.06 | 2.56 | 3.36
2 | O=C(Nc1ccc(OC(F)(F)Cl)cc1)c1cnc(N2CC[C@@H](O)C2)c(-c2cc[nH]n2)c1 [Asciminib] (top concentration 1000 nM) | -1.98 | 16.2 | -1.98
3 | C[C@H]1Oc2cc(cnc2N)-c2c(nn(C)c2C#N)CN(C)C(=O)c2ccc(F)cc21 (top concentration 1000 nM) | -0.72 | -0.72 | 3.38
4 | CCNCCS(=O)(=O)NC[C@@]1(c2ccccc2)SC(NC(=O)C(C)(C)C)=NN1C(=O)C(C)(C)C [Litronesib] (top concentration 1000 nM) | 21.3 | 21.4 | 22.1
5 | Cc1ccc(NC(=O)c2ccc(CN3CC[C@H](N(C)C)C3)c(C(F)(F)F)c2)cc1Nc1nccc(-c2cncnc2)n1 [Bafetinib] (top concentration 1000 nM) | 9.9 | 15.4 | 0.4
6 | CN(C)CCCOc1ccc(-c2ccc3ncc4c(c3c2)n(C2CCOCC2)c(=O)n4C)cn1 [AZD0156] (top concentration 1000 nM) | 0.94 | -0.06 | 7.24
7 | CC[C@H](C)C(=O)O[C@H]1C[C@@H](C)C=C2C=C[C@H](C)[C@H](CC[C@@H]3C[C@@H](O)CC(=O)O3)[C@H]21 [Lovastatin] (top concentration 10000 nM) | -0.1 | 1.2 | 0.2
8 | CN(C)C/C=C/C(=O)Nc1cc2c(Nc3ccc(F)c(Cl)c3)ncnc2cc1O[C@H]1CCOC1 [Afatinib] (top concentration 1000 nM) | 1.96 | 0.66 | 1.26
9 | COc1cc(OC)cc(N(CCNC(C)C)c2ccc3ncc(-c4cnn(C)c4)nc3c2)c1 [Erdafitinib] (top concentration 1000 nM) | 3.04 | -0.36 | 2.04
10 | COc1cc2c(cc1OC(C)C)[C@H](c1ccc(Cl)cc1)N(c1ccc(N(C)C[C@H]3CC[C@H](N4CCN(C)C(=O)C4)CC3)cc1)C(=O)C2 [NVP-CGM097] (top concentration 25000 nM) | 8.76 | -2.14 | 10.6
11 | FC(F)c1nc2ccccc2n1-c1nc(N2CCOCC2)nc(N2CCOCC2)n1 [ZSTK474] (top concentration 10000 nM) | 3.76 | -3.64 | 28.4
12 | CN1CCN(c2ccc3nc(-c4c(N)c5c(F)cccc5[nH]c4=O)[nH]c3c2)CC1 [Dovitinib] (top concentration 10000 nM) | 1.86 | 0.66 | 0.46
13 | COc1cc2nccc(Oc3ccc(NC(=O)NC4CC4)c(Cl)c3)c2cc1C(N)=O [Lenvatinib] (top concentration 2500 nM) | 5.06 | 2.26 | 5.36
14 | C[C@H]1C[C@@H]2[C@H]([C@@H](O)C[C@@]3(C)[C@H]2CC[C@]3(O)C(=O)CO)[C@@]2(C)C=CC(=O)C=C12 [Methylprednisolone] (top concentration 10000 nM) | 13.9 | -1.5 | 30.2
15 | CN(C)C(=N)NC(=N)N [Metformin] (top concentration 100000 nM) | -0.02 | -0.02 | -0.02
16 | Clc1ccc(Nc2nnc(Cc3ccncc3)c3ccccc23)cc1 [Vatalanib] (top concentration 10000 nM) | 1.1 | 0.7 | 0
17 | CN(C)C(=O)c1cc2cnc(Nc3ccc(N4CCNCC4)cn3)nc2n1C1CCCC1 [Ribociclib] (top concentration 10000 nM) | 1.48 | 3.18 | 8.08
18 | Cn1cc(-c2cnn3c(N)c(Br)c([C@@H]4CCCNC4)nc23)cn1 [MK-8776] (top concentration 2500 nM) | 0.64 | -0.26 | 3.94

Row | SMILES | selective drug sensitivity score (CCRF-HSB2) | selective drug sensitivity score (PEER) | selective drug sensitivity score (RCH-ACV)
19 | CCCc1cc(C)[nH]c(=O)c1CNC(=O)c1cc(-c2ccnc(N3CCN(C)CC3)c2)cc2c1cnn2C(C)C [GSK343] (top concentration 1000 nM) | 0 | 0 | 0
20 | COCC1(CO)C(=O)C2CCN1CC2 (stereo not given) [APR-246] (top concentration 10000 nM) | -1.16 | -1.16 | -1.16
21 | N#Cc1ccc(C(c2ccc(C#N)cc2)n2cncn2)cc1 [Letrozole] (top concentration 10000 nM) | -0.04 | -0.04 | -0.04
22 | CNc1nc(Nc2cn(C(C)(C)C#N)nc2C)ncc1C(F)(F)F [GNE-0877] (top concentration 1000 nM) | 0 | 0 | 0
23 | NS(=O)(=O)NCCNc1nonc1/C(=N/O)Nc1ccc(F)c(Br)c1 [Epacadostat] (top concentration 10000 nM) | -0.26 | 0.14 | -0.26
24 | CNC(=O)c1cc(COc2nnc(Nc3ccc(Cl)cc3)c3ccoc23)ccn1 [Telatinib] (top concentration 10000 nM) | 0 | 0 | 0.2
25 | O=C(CCNC(=O)c1ccc(OC(F)(F)F)cc1)N[C@@H]1CCCc2ccccc21 [ML390] (top concentration 50000 nM) | 12.2 | 5.5 | 21
26 | FC(F)(F)c1ccc(/C=C/c2nc(COc3ccc(CCCCn4ccnn4)cc3)co2)cc1 [Mubritinib] (top concentration 1000 nM) | 9.36 | 21.7 | 12.7
27 | CCOc1ccccc1-n1c(C(C)N2CCN(C(=O)COc3ccc(Cl)cc3)CC2)nc2ccccc2c1=O (stereo not given) [Erastin] (top concentration 10000 nM) | 10.6 | 7.94 | 17.6
28 | CCN(CC)CCOc1ccc(/C(=C(/Cl)c2ccccc2)c2ccccc2)cc1 [Clomifene] (top concentration 10000 nM) | 1.52 | 1.02 | 3.22
29 | CCOc1cc2ncc(C#N)c(Nc3ccc(OCc4ccccn4)c(Cl)c3)c2cc1NC(=O)/C=C/CN(C)C [Neratinib] (top concentration 1000 nM) | 1.78 | 2.88 | 5.38
30 | O=C(NC[C@H](O)CN1CCc2ccccc2C1)c1cc(NC2COC2)ncn1 (top concentration 10000 nM) | 1.64 | -0.06 | 1.24
31 | COc1cc2c(NC3CCN(C(C)C)CC3)nc(N3CCC(F)(F)CC3)nc2cc1OCCCN1CCCC1 [UNC0642] (top concentration 10000 nM) | -0.54 | -0.74 | 2.56
32 | O=C(c1ccc(C(=O)N2CCC(N3CCCC3)CC2)c(Nc2ccccc2)c1)N1CCC(N2CCCC2)CC1 [UNC1215] (top concentration 10000 nM) | 0 | 0 | 0
33 | Cc1ccc(=O)n(-c2ccccc2)c1 [Pirfenidone] (top concentration 10000 nM) | 0 | 0 | 0
34 | Nc1nc(Cl)nc2c1ncn2[C@H]1C[C@H](O)[C@@H](CO)O1 [Cladribine] (top concentration 1000 nM) | -0.04 | -12.2 | 5.76
35 | Cc1cc(Nc2cc(N3CCN(C)CC3)nc(Sc3ccc(NC(=O)C4CC4)cc3)n2)n[nH]1 [Tozasertib] (top concentration 10000 nM) | 21.9 | 22.6 | 17.9
